The source of these data is ChEMBL document CHEMBL3098123, “New inhibitors of cytomegalovirus DNA polymerase” (ACS Med Chem Lett, 2013).

This assay in a line: Inhibition of GST-tagged recombinant human cytomegalovirus DNA polymerase catalytic subunit UL54 expressed in baculovirus infected insect Sf21 cells assessed as incorporation of biotin-tagged dUTP after 30 mins by LANCE TR-FRET assay. On the set-up: species or system Human betaherpesvirus 5. In general terms: TR-FRET usually uses a lanthanide donor and a delayed reading to cut background.
For the compound `CN(CC(=O)O)c1ccnc2c1cc(C(=O)NCc1ccc(Cl)cc1)c(=O)n2CC(=O)N1CC(C)(C)C1`, the IC50 is 50 nM.

Turning to `COc1cc(N)nc2c1cc(C(=O)NCc1ccc(Cl)cc1)c(=O)n2CC(=O)N(C)CC1(CO)COC1`, the IC50 came to 22 nM.

With `CC1(C)CN(C(=O)Cn2c(=O)c(C(=O)NCc3ccc(Cl)cc3)cc3cc(-c4nn[nH]n4)cnc32)C1`, the IC50 was determined as 30 nM.

As a reminder, the IC50 is the concentration needed to halve the response being measured.
